From the supplement of paper PMC10307832

Legend:
Assay in all cases: relative viability (nuclei count vs DMSO), 5 days (fraction); higher = more cells survive
[1] = compound: C1/C(=C\C2=CC=CS2)/C(=O)/C(=C/C3=CC=CS3)/C1 + CC(=O)Nc1cccc(-n2c(=O)n(C3CC3)c(=O)c3c(Nc4ccc(I)cc4F)n(C)c(=O)c(C)c32)c1 [Trametinib] (partner 0.02 µM)
Procedure, shortened: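 Cells from lung cancer lines were seeded into 1536-well plates and, one day later, dosed by pin tool. Treatments were either a single drug or a fixed dose of an anchor drug with five library-drug doses (not always all listed) in √10 steps. After 5 days, nuclei were stained in a one-step fixation (final 0.05% Triton X-100, 1% formaldehyde, 1 ug/ml Hoechst) and counted on 4× images, and relative viability is the treated-to-vehicle nuclei ratio, as the median of duplicate plates.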

[2] = compound: C1/C(=C\C2=CC=CS2)/C(=O)/C(=C/C3=CC=CS3)/C1
Procedure, shortened: (§1)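 Lung cancer cell lines were seeded into 1536-well plates, kept overnight at 37 °C and pinned with five library-drug doses (not always all listed) spaced by √10. After 5 days, nuclei were Hoechst-stained, imaged at 4× and counted with MetaXpress. Viability is treated-well nuclei over vehicle-well nuclei, taken as a median across plates. Plates needed control CV below 25% and at least one doubling.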

[3] = compound: C[C@]12O[C@H](C[C@]1(O)CO)n1c3ccccc3c3c4c(c5c6ccccc6n2c5c31)CNC4=O [Lestaurtinib]
Procedure, shortened: as §1

[4] = compound: C1=CC(=CC=C1C2=CC(=C(S2)NC(=O)N)C(=O)N)F [TPCA-1]
Procedure, shortened: as §1

Row | Cell Line | relative viability ([1]; first compound 0.2 µM) | relative viability ([1]; first compound 0.6325 µM) | relative viability ([1]; first compound 2 µM) | relative viability ([1]; first compound 6.325 µM) | relative viability ([1]; first compound 20 µM) | relative viability ([2]; 0.2 µM) | relative viability ([2]; 0.6325 µM) | relative viability ([2]; 2 µM) | relative viability ([2]; 6.325 µM) | relative viability ([2]; 20 µM) | relative viability ([3]; 0.005 µM) | relative viability ([3]; 0.01581 µM) | relative viability ([3]; 0.05 µM) | relative viability ([3]; 0.1581 µM) | relative viability ([3]; 0.5 µM) | relative viability ([4]; 0.04 µM) | relative viability ([4]; 0.1265 µM) | relative viability ([4]; 0.4 µM) | relative viability ([4]; 1.265 µM) | relative viability ([4]; 4 µM)
1 | HCC-366 | 0.386 | 0.371 | 0.316 | 0.314 | 0.329 | 1.02 | 1.05 | 1.1 | 0.827 | 1.04 | 1.06 | 1.01 | 1.02 | 1.01 | 0.829 | 1.03 | 0.995 | 1.01 | 1.01 | 0.152
2 | NCI-H2347 | 0.273 | 0.271 | 0.27 | 0.26 | 0.28 | 1.1 | 1.03 | 1.02 | 0.969 | 1.03 | 0.979 | 1.1 | 0.9 | 0.72 | 0.654 | 1.13 | 0.961 | 1.01 | 0.873 | 0.929
3 | NCI-H1648 | 0.604 | 0.628 | 0.435 | 0.417 | 0.256 | 0.934 | 0.875 | 0.876 | 0.728 | 0.739 | 0.688 | 0.993 | 0.691 | 1.17 | 0.879 | 1.1 | 0.788 | 1.03 | 0.824 | 0.993
4 | LXF-289 | 0.707 | 0.693 | 0.675 | 0.626 | 0.613 | 1.03 | 1.03 | 1.02 | 0.902 | 0.991 | 0.963 | 1.02 | 0.93 | 0.901 | 0.315 | 1 | 0.934 | 0.954 | 0.953 | 0.69
5 | NCI-H1793 | 0.429 | 0.452 | 0.49 | 0.403 | 0.463 | 0.962 | 0.953 | 1.1 | 0.856 | 0.87 | 0.949 | 0.986 | 0.657 | 0.828 | 0.723 | 1.1 | 0.718 | 1.08 | 0.954 | 0.279
6 | LU99A | 0.626 | 0.558 | 0.555 | 0.495 | 0.497 | 1 | 0.966 | 1.02 | 0.788 | 0.892 | 0.892 | 0.893 | 0.625 | 0.489 | 0.251 | 1.1 | 0.909 | 0.989 | 0.919 | 0.437
7 | PC-14 | 0.792 | 0.829 | 0.761 | 0.696 | 0.663 | 1.03 | 1.06 | 1 | 0.899 | 0.995 | 1.06 | 1.11 | 0.848 | 0.741 | 0.344 | 1.03 | 0.946 | 1.06 | 1.04 | 0.838
8 | NCI-H2085 | 0.516 | 0.513 | 0.545 | 0.635 | 0.538 | 1.08 | 1.01 | 1.01 | 0.898 | 0.961 | 0.989 | 0.99 | 0.996 | 1.01 | 0.786 | 0.989 | 0.989 | 0.988 | 0.897 | 0.875
9 | NCI-H2170 | 0.918 | 0.92 | 0.863 | 0.78 | 0.867 | 1 | 0.942 | 0.991 | 0.881 | 0.924 | 0.959 | 0.832 | 0.689 | 0.807 | 0.494 | 1.19 | 0.959 | 0.98 | 0.895 | 0.674
10 | HCC-78 | 0.762 | 0.438 | 0.744 | 0.805 | 0.666 | 0.972 | 0.927 | 1.25 | 0.823 | 0.908 | 0.823 | 0.943 | 0.547 | 0.577 | 0.44 | 0.972 | 0.834 | 0.892 | 0.788 | 0.391
11 | NCI-H1395 | 1.13 | 0.996 | 1.08 | 0.88 | 1.09 | 0.912 | 0.876 | 1.11 | 0.833 | 0.945 | 0.886 | 1.04 | 0.759 | 0.759 | 0.462 | 1.01 | 0.916 | 1.02 | 0.811 | 0.703
12 | NCI-H2126 | 0.554 | 0.586 | 0.576 | 0.502 | 0.585 | 1.03 | 1.01 | 1.07 | 0.896 | 0.979 | 1.02 | 1.1 | 0.891 | 0.842 | 0.729 | 0.997 | 0.918 | 1.01 | 0.89 | 0.809
13 | H3255 | 0.644 | 0.583 | 0.596 | 0.446 | 0.666 | 1.03 | 1.04 | 0.977 | 0.899 | 0.972 | 1.03 | 1.08 | 0.935 | 0.744 | 0.511 | 1.08 | 0.898 | 0.916 | 0.816 | 0.783
14 | HCC-15 | 0.397 | 0.376 | 0.417 | 0.376 | 0.374 | 1.04 | 1.04 | 1.03 | 0.87 | 0.977 | 1.08 | 1.18 | 0.873 | 0.824 | 0.183 | 1.14 | 0.926 | 1.04 | 0.887 | 0.55
15 | NCI-H661 | 0.593 | 0.602 | 0.585 | 0.523 | 0.549 | 1.05 | 1.03 | 0.998 | 0.903 | 0.985 | 1.01 | 0.972 | 0.964 | 0.935 | 0.439 | 0.963 | 0.858 | 0.983 | 0.961 | 0.7
16 | NCI-H2009 | 0.284 | 0.308 | 0.317 | – | 0.272 | 1.03 | 0.98 | 0.972 | 0.936 | 0.994 | 0.999 | 1.04 | 0.82 | 0.762 | 0.366 | 1.12 | 1 | 1.01 | 0.859 | 0.834
